Measurements: patent publication US9708316B2 (BRISTOL-MYERS SQUIBB COMPANY, priority 2014, dated 2017)

Assays:
HIS-TGFβR2 WT = HIS-TGFβR2 WT (Homo sapiens, UniProt P37173); assay: HTRF probe-displacement assay, HIS-TGFβR2 WT; assay type: binding
HIS-TGFβR1 T204D = molecular target: T1, HIS-TGFβR1 T204D (Homo sapiens, UniProt P36897, T204D); assay: HTRF probe-displacement assay, HIS-TGFβR1 T204D; assay type: binding; settings: read-out: TGFβR1 (μM) IC50
T1 sequence (P36897 34-503 T204D): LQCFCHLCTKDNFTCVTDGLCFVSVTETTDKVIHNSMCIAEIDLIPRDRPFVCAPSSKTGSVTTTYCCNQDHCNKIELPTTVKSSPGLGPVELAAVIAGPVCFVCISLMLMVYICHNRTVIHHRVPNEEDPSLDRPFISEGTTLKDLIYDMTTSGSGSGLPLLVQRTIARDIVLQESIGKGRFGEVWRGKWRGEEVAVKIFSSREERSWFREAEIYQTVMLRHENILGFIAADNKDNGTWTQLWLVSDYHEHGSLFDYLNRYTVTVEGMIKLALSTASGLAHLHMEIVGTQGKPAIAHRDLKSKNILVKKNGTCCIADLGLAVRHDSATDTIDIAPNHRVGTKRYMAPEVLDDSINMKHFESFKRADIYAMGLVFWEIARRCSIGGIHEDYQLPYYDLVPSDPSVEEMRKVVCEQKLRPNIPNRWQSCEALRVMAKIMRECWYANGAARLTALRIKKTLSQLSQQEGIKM

Chain of HIS-TGFβR2 WT (P37173 23-567): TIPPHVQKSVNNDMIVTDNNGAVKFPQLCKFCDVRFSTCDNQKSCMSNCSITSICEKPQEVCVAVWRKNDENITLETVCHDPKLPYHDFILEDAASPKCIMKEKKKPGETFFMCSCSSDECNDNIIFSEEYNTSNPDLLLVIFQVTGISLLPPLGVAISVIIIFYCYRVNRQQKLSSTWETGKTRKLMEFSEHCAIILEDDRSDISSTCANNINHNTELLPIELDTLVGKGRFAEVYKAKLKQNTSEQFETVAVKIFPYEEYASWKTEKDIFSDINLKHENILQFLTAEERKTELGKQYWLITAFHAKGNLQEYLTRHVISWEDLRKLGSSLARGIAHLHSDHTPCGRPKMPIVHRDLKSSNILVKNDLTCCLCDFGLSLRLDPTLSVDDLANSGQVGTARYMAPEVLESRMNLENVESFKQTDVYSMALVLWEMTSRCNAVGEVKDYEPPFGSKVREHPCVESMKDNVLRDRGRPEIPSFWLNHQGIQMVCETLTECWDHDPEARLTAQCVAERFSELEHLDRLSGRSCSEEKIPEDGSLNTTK

Structure (SMILES)	IC50 (HIS-TGFβR2 WT) [µM]	IC50 (HIS-TGFβR1 T204D) [µM]
COCCCc1ccnc2c(-c3cccc(C(F)F)n3)c(-c3ccnc(NC(C)=O)c3)[nH]c12 [Example 131, N-(4-{3-[6-(Difluoromethyl)pyridin-2-yl]-7-(3-methoxypropyl)-1H-pyrrolo[3,2-b]pyridin-2-yl}pyridin-2-yl)acetamide]	3.84	0.001
O=C(CNCCCN1CCOCC1)Nc1cc(-c2[nH]c3cc(Cl)cnc3c2-c2ccc(F)cn2)ccn1 [Example 89, N-{4-[6-Chloro-3-(5-fluoropyridin-2-yl)-1H-pyrrolo[3,2-b]pyridin-2-yl]pyridin-2-yl}-2-{[3-(morpholin-4-yl)propyl]amino}acetamide]	4.81	0.003
COc1ccc(-c2c(-c3ccnc(NC(=O)CN4CCN(CCO)CC4)c3)[nH]c3cc(Cl)cnc23)cn1 [Example 235, N-(4-(6-Chloro-3-(6-methoxypyridin-3-yl)-1H-pyrrolo[3,2-b]pyridin-2-yl)pyridin-2-yl)-2-(4-(2-hydroxyethyl)piperazin-1-yl)acetamide]	0.176	0.001
O=C(CN1CCN(CCO)CC1)Nc1cc(-c2[nH]c3cc(Cl)cnc3c2-c2ccc(F)cn2)ccn1 [Example 246, N-(4-(6-Chloro-3-(5-fluoropyridin-2-yl)-1H-pyrrolo[3,2-b]pyridin-2-yl)pyridin-2-yl)-2-(4-(2-hydroxyethyl)piperazin-1-yl)acetamide]	5.99	0.001
COc1cnc2c(-c3ccc(F)c(C)n3)c(-c3ccnc(NC(C)=O)c3)[nH]c2c1 [Example 51, N-{4-[3-(5-Fluoro-6-methylpyridin-2-yl)-6-methoxy-1H-pyrrolo[3,2-b]pyridin-2-yl]pyridin-2-yl}acetamide]	0.61	0.002
CNCc1cnc2c(-c3ccc(OC)cn3)c(-c3ccnc(NC(C)=O)c3)[nH]c2c1 [Example 293, N-(4-(3-(5-Methoxypyridin-2-yl)-6-((methylamino)methyl)-1H-pyrrolo[3,2-b]pyridin-2-yl)pyridin-2-yl)acetamide]	> 15	0.016
COc1cccc(-c2c(-c3ccnc(NC(C)=O)c3)[nH]c3cccnc23)n1 [Example 2, N-{4-[3-(6-Methoxypyridin-2-yl)-1H-pyrrolo[3,2-b]pyridin-2-yl]pyridin-2-yl}acetamide]	7.85	0.006
CC(=O)Nc1cc(-c2[nH]c3c(C(F)F)ccnc3c2-c2nc(C)cs2)ccn1 [Example 222, N-(4-(7-(Difluoromethyl)-3-(4-methylthiazol-2-yl)-1H-pyrrolo[3,2-b]pyridin-2-yl)pyridin-2-yl)acetamide]	0.129	0.0015
CC(=O)Nc1cc(-c2[nH]c3cccnc3c2-c2cnc(F)c(F)c2)ccn1 [Example 10, N-{4-[3-(5,6-Difluoropyridin-3-yl)-1H-pyrrolo[3,2-b]pyridin-2-yl]pyridin-2-yl}acetamide]	0.01	0.057
COc1ccc(-c2c(-c3ccnc(NC(C)=O)c3)[nH]c3cc(NC(C)=O)cnc23)nc1 [Example 157, N-(4-(6-Acetamido-3-(5-methoxypyridin-2-yl)-1H-pyrrolo[3,2-b]pyridin-2-yl)pyridin-2-yl)acetamide]	> 15	0.0013
CC(=O)Nc1cc(-c2[nH]c3c(C(=O)NC(CO)CO)cc(Cl)nc3c2-c2cccnc2)ccn1 [Example 60, 5-Chloro-N-(1,3-dihydroxypropan-2-yl)-2-(2-acetamidopyridin-4-yl)-3-(pyridin-3-yl)-1H-pyrrolo[3,2-b]pyridine-7-carboxamide]	6.65	0.32
CC(=O)Nc1cc(-c2[nH]c3c(C)ccnc3c2-c2ncc(C)s2)ccn1 [Example 218, N-(4-(7-Methyl-3-(5-methylthiazol-2-yl)-1H-pyrrolo[3,2-b]pyridin-2-yl)pyridin-2-yl)acetamide]	0.594	0.0017
CC(=O)Nc1cc(-c2[nH]c3cccnc3c2-c2cnn(C)c2)ccn1 [Example 187, N-(4-(3-(1-Methyl-1H-pyrazol-4-yl)-1H-pyrrolo[3,2-b]pyridin-2-yl)pyridin-2-yl)acetamide]	0.424	0.0587
COC(=O)c1cc(Cl)nc2c(-c3ccc(F)cn3)c(-c3ccnc(NC(C)=O)c3)[nH]c12 [Example 69, Methyl 5-chloro-2-(2-acetamidopyridin-4-yl)-3-(5-fluoropyridin-2-yl)-1H-pyrrolo[3,2-b]pyridine-7-carboxylate]	> 15	0.76
CC(=O)Nc1cc(-c2[nH]c3cccnc3c2-c2ncc(C)s2)ccn1 [Example 202, N-(4-(3-(5-Methylthiazol-2-yl)-1H-pyrrolo[3,2-b]pyridin-2-yl)pyridin-2-yl)acetamide]	0.225	0.0015
CC(=O)Nc1cc(-c2[nH]c3c(Cl)ccnc3c2-c2cccc(F)n2)ccn1 [Example 64, N-{4-[7-Chloro-3-(6-fluoropyridin-2-yl)-1H-pyrrolo[3,2-b]pyridin-2-yl]pyridin-2-yl}acetamide]	0.3	0.009
COc1ccc(-c2c(-c3ccnc(NC(C)=O)c3)[nH]c3ccc(F)nc23)cn1 [Example 36, N-{4-[5-Fluoro-3-(6-methoxypyridin-3-yl)-1H-pyrrolo[3,2-b]pyridin-2-yl]pyridin-2-yl}acetamide]	0.06	0.002
COc1cnc2c(-c3cccc(C(F)F)n3)c(-c3ccnc(NC(=O)CN4CCN(CCO)CC4)c3)[nH]c2c1 [Example 123, N-(4-{3-[6-(Difluoromethyl)pyridin-2-yl]-6-methoxy-1H-pyrrolo[3,2-b]pyridin-2-yl}pyridin-2-yl)-2-[4-(2-hydroxyethyl)piperazin-1-yl]acetamide]	> 15	< 0.001
CCOc1ccc(-c2c(-c3ccnc(NC(C)=O)c3)[nH]c3cc(Cl)cnc23)cn1 [Example 258, N-(4-(6-Chloro-3-(6-ethoxypyridin-3-yl)-1H-pyrrolo[3,2-b]pyridin-2-yl)pyridin-2-yl)acetamide]	6.29	0.002
CC(=O)Nc1cc(-c2[nH]c3cccnc3c2-c2cc(Cl)ccn2)ccn1 [Example 32, N-{4-[3-(4-Chloropyridin-2-yl)-1H-pyrrolo[3,2-b]pyridin-2-yl]pyridin-2-yl}acetamide]	0.44	0.049
COc1ccnc2c(-c3cccc(C(F)F)n3)c(-c3ccnc(NC(C)=O)c3)[nH]c12 [Example 267, N-(4-(3-(6-(Difluoromethyl)pyridin-2-yl)-7-methoxy-1H-pyrrolo[3,2-b]pyridin-2-yl)pyridin-2-yl)acetamide]	> 15	0.002
CN1CCN(CC(=O)Nc2cc(-c3[nH]c4cc(Cl)cnc4c3-c3ccc(F)cn3)ccn2)CC1 [Example 88, N-{4-[6-Chloro-3-(5-fluoropyridin-2-yl)-1H-pyrrolo[3,2-b]pyridin-2-yl]pyridin-2-yl}-2-(4-methylpiperazin-1-yl)acetamide]	9.92	0.001
CC(=O)Nc1cc(-c2[nH]c3c(CO)ccnc3c2-c2ccc(Cl)nc2)ccn1 [Example 278, N-(4-(3-(6-Chloropyridin-3-yl)-7-(hydroxymethyl)-1H-pyrrolo[3,2-b]pyridin-2-yl)pyridin-2-yl)acetamide]	0.709	0.011
CC(=O)Nc1cc(-c2[nH]c3cc(Cl)cnc3c2-c2cccc(F)n2)ccn1 [Example 45, N-{4-[6-Chloro-3-(6-fluoropyridin-2-yl)-1H-pyrrolo[3,2-b]pyridin-2-yl]pyridin-2-yl}acetamide]	0.11	0.003
CC(=O)Nc1cc(-c2[nH]c3c(C)ccnc3c2-c2nc(C(F)F)cs2)ccn1 [Example 220, N-(4-(3-(4-(Difluoromethyl)thiazol-2-yl)-7-methyl-1H-pyrrolo[3,2-b]pyridin-2-yl)pyridin-2-yl)acetamide]	1.38	0.0005
O=C(CN1CCC(O)CC1)Nc1cc(-c2[nH]c3cc(Cl)cnc3c2-c2ccc(F)cn2)ccn1 [Example 244, N-(4-(6-Chloro-3-(5-fluoropyridin-2-yl)-1H-pyrrolo[3,2-b]pyridin-2-yl)pyridin-2-yl)-2-(4-hydroxypiperidin-1-yl)acetamide]	7.82	0.003
CC(=O)Nc1cc(-c2[nH]c3cc(Cl)cnc3c2-c2nc(C(F)(F)F)cs2)ccn1 [Example 175, N-(4-(6-Chloro-3-(4-(trifluoromethyl)thiazol-2-yl)-1H-pyrrolo[3,2-b]pyridin-2-yl)pyridin-2-yl)acetamide]	> 15	0.0004
CC(=O)Nc1cc(-c2[nH]c3cc(Cl)cnc3c2-c2cccc(CO)n2)ccn1 [Example 67, N-(4-{6-Chloro-3-[6-(hydroxymethyl)pyridin-2-yl]-1H-pyrrolo[3,2-b]pyridin-2-yl}pyridin-2-yl)acetamide]	0.36	0.037
COc1cnc2c(-c3ccc(F)cn3)c(-c3ccnc(NC(C)=O)c3)[nH]c2c1 [Example 49, N-{4-[3-(5-Fluoropyridin-2-yl)-6-methoxy-1H-pyrrolo[3,2-b]pyridin-2-yl]pyridin-2-yl}acetamide]	0.24	0.003
CC(=O)Nc1cc(-c2[nH]c3c(CF)ccnc3c2-c2cccc(C(F)F)n2)ccn1 [Example 150, N-(4-{3-[6-(Difluoromethyl)pyridin-2-yl]-7-(fluoromethyl)-1H-pyrrolo[3,2-b]pyridin-2-yl}-pyridin-2-yl)acetamide]	6.08	0.001
